The text below walks through data of patent publication US20090111691A1, “Fungicides and Bioregulatory Mixtures” (priority 2005, published 2009).

The test system of this assay is Puccinia recondita. The assay can be described thus: Curative activity against brown rust of wheat (Puccrt K1), potted wheat seedlings cultivar Kanzler. The conditions noted are these: efficacy in % of untreated control, sprayed 1 day after inoculation, rated after 7 days, read-out: Observed activity (%). The assay is classed as in vivo. The protocol: The active compounds were prepared separately or jointly as a stock solution with 25 mg of active compound which was made up to 10 ml using a mixture of acetone and/or DMSO and the emulsifier Uniperol® EL (wetting agent having emulsifying and dispersing action based on ethoxylated alkylphenols) in a volume ratio of solvent/emulsifier of 99 to 1. The mixture was then made up to 100 ml with water. This stock solution was diluted with the solvent/emulsifier/water mixture described to the concentration of active compounds stated below.
The visually determined percentages of infected leaf areas or the measured elongation were converted into efficacies in % of the untreated control:
The efficacy (E) is calculated as follows using Abbot's formula: […]
The expected efficacies of mixtures of active compounds were determined using Colby's formula (Colby, S. R. “Calculating synergistic and antagonistic responses of herbicide combinations”, Weeds, 15, pp. 20-22, 1967) and compared with the observed efficacies. […]
Leaves of potted wheat seedlings of the cultivar “Kanzler” were inoculated with a spore suspension of brown rust (Puccinia recondita). […] The extent of the rust fungus development on the leaves was then determined. The visually determined values for the percentage of infected leaf area were initially converted into a mean value and then converted into efficacies in % of the untreated control. […]

As to `Fc1ccc(C2(Cn3cncn3)OC2c2ccccc2Cl)cc1` (centres unmarked) [Epoxiconazole, epoxiconazole], the inhibition at 250 µg/mL (Conc. 0.25 mg/ml) came to 11%.
Turning to `CCOC(=O)C1CC(=O)C(=C(O)C2CC2)C(=O)C1` (centres unmarked) [Trinexapac-ethyl, trinexapac-ethyl], the inhibition at 60 µg/mL (Conc. 0.06 mg/ml) was 0%.
